The compounds below were run against T1, Protoporphyrinogen oxidase, mitochondrial (Nicotiana tabacum, UniProt O24164) (assay: Inhibition of Nicotiana tobacum PPO).
T1 sequence (O24164 whole entry): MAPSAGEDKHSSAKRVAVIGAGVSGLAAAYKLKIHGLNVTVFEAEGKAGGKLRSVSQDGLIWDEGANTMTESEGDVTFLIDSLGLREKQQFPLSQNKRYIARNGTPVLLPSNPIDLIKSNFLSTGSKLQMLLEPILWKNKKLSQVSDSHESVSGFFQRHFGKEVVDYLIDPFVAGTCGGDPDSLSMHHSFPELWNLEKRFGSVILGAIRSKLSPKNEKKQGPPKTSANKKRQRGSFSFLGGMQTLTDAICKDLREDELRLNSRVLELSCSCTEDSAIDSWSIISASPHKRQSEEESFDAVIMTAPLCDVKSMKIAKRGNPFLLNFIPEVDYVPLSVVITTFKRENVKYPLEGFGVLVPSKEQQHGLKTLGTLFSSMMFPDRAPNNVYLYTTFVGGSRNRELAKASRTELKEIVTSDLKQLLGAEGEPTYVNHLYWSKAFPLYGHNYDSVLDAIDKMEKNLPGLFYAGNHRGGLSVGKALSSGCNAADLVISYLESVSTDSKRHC

SMILES | Ki
O=C(O)c1cc(Oc2ccc(C(F)(F)F)cc2Cl)ccc1[N+](=O)[O-] [ACIFLUORFEN] | 0.07 µM

Each compound was assayed against T2, Protoporphyrinogen oxidase (Homo sapiens, UniProt P50336) (assay: Inhibition of human PPO expressed in Escherichia coli BL21(DE3) by continuous fluorometric method).
T2 sequence (P50336 whole entry): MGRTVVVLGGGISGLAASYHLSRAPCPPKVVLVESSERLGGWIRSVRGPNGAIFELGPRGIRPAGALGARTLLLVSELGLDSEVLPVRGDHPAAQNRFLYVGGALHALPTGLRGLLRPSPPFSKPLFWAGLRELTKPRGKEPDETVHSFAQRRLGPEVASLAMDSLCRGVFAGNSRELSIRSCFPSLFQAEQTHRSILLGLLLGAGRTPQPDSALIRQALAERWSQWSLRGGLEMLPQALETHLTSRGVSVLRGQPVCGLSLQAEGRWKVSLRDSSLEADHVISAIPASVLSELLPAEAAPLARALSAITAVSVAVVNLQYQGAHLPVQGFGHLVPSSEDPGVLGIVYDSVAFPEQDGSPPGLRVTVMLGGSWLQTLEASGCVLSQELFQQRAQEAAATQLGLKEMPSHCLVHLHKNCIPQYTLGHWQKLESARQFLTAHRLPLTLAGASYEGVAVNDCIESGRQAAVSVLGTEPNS

SMILES | Ki
O=C(O)c1cc(Oc2ccc(C(F)(F)F)cc2Cl)ccc1[N+](=O)[O-] [ACIFLUORFEN] | 1.71 µM

These compounds were tested against T2, Protoporphyrinogen oxidase (assay: Inhibition of human PPO by capillary electrophoresis method).

SMILES | Ki
CCOC(=O)CCSc1nc2cc(-n3nc(C(C)(C)C)sc3=O)c(Br)cc2s1 | 27.5 µM
CCOC(=O)CSc1nc2cc(-n3nc(C(C)(C)C)sc3=O)c(Br)cc2s1 | 15.6 µM
CCOC(=O)C(C)Sc1nc2cc(-n3nc(C(C)(C)C)sc3=O)c(Cl)cc2s1 (stereo not given) | 12 µM
CCOC(=O)CCCSc1nc2cc(-n3nc(C(C)(C)C)sc3=O)c(Cl)cc2s1 | 17.7 µM
CCOC(=O)C(C)Sc1nc2cc(-n3nc(C(C)(C)C)sc3=O)c(Br)cc2s1 (stereo not given) | 173 µM
CCOC(=O)C(C)(C)Sc1nc2cc(-n3nc(C(C)(C)C)sc3=O)c(Br)cc2s1 | 43.5 µM
CCOC(=O)Sc1nc2cc(-n3nc(C(C)(C)C)sc3=O)c(Cl)cc2s1 | 0.2 µM
CCOC(=O)C(C)(C)Sc1nc2cc(-n3nc(C(C)(C)C)oc3=O)c(Br)cc2s1 | 1.58 µM
C#CCSc1nc2cc(-n3nc(C(C)(C)C)sc3=O)c(Br)cc2s1 | 20.7 µM
C#CCSc1nc2cc(-n3nc(C(C)(C)C)oc3=O)c(F)cc2s1 | 1.92 µM
CCOC(=O)CCCSc1nc2cc(-n3nc(C(C)(C)C)sc3=O)c(Br)cc2s1 | 245 µM
CC(C)Oc1cc(-n2nc(C(C)(C)C)oc2=O)c(Cl)cc1Cl [OXADIAZON] | 2.93 µM
CCOC(=O)Sc1nc2cc(-n3nc(C(C)(C)C)oc3=O)c(F)cc2s1 | 0.72 µM
CC(C)OC(=O)CSc1nc2cc(-n3nc(C(C)(C)C)sc3=O)c(F)cc2s1 | 1.26 µM
CCOC(=O)Sc1nc2cc(-n3nc(C(C)(C)C)sc3=O)c(F)cc2s1 | 0.04 µM
CCOC(=O)C(C)(C)Sc1nc2cc(-n3nc(C(C)(C)C)sc3=O)c(Cl)cc2s1 | 34.4 µM
CCOC(=O)C(C)Sc1nc2cc(-n3nc(C(C)(C)C)sc3=O)c(F)cc2s1 (stereo not given) | 5.89 µM
CCOC(=O)CSc1nc2cc(-n3nc(C(C)(C)C)sc3=O)c(F)cc2s1 | 0.34 µM
CCOC(=O)CCCSc1nc2cc(-n3nc(C(C)(C)C)oc3=O)c(F)cc2s1 | 0.36 µM
C#CCSc1nc2cc(-n3nc(C(C)(C)C)sc3=O)c(Cl)cc2s1 | 21.4 µM
CCOC(=O)C(C)(C)Sc1nc2cc(-n3nc(C(C)(C)C)sc3=O)c(F)cc2s1 | 3.46 µM
COC(=O)CSc1nc2cc(-n3nc(C(C)(C)C)sc3=O)c(F)cc2s1 | 3.05 µM
CCOC(=O)CSc1nc2cc(-n3nc(C(C)(C)C)oc3=O)c(Cl)cc2s1 | 1.07 µM

From ChEMBL document CHEMBL1926669, “Quantitative structure-activity relationships of 1,3,4-thiadiazol-2(3H)-ones and 1,3,4-oxadiazol-2(3H)-ones as human protoporphyrinogen oxidase inhibitors” (Bioorg Med Chem, 2012)
